The source of these data is patent US20050136126A1, “Agent for reduction of scar formation by using wound alkalinization” (CambridgeMED, Inc., priority 2003, published 2005).

Data set [1] concerns incised wound on the dorsum of adult white rats. The conditions noted are these: for deposited collagen (amount, appearance) / collagen fibers (density, structure) vs normal dermis: Trichrome dyeing.
Protocol: On the dorsum of adult white rats, skin near the limbs which are on the same distance from the median line was incised in about 10 mm long. In a sham control group, 0.1 cc distilled water was injected to the dermis of the incised wound and simply sutured.
On 14th and 56th days from the experiments, tissues of ten adult white rats were taken, fixed in 10% neutral buffer formalin for 24 hours, embedded in paraffin throughout the normal tissue treating process.
With a tissue sample, which was cut perpendicularly to the middle of the wound, the width of the scar by use of image analysis program (Image-Pro version 3.0, Microsoft) under 40 magnification was measured, and the differences between the groups were compared. The result of the measurement was confirmed by Student t-test.
On the dorsum of adult white rats, skin near the limbs which are on the same distance from the median line was incised in about 10 mm long. After incision, the control group was simply sutured.
The text on data set [2]:
Regarding concentrations and amounts of the various reagents, please refer to Tables 1 and 2 below: […]

In another data set the test system is TGF-β. In words: Experiment of TGF-β inactivation: histology and width of scar after TGF-β injection into incised wound. It is filed as in vivo, bovine. The conditions noted are these: 8 weeks; Trichrome dyeing.
Setting [3] is: 2 weeks, hematoxylin-eosin dyeing, ×40.

Read-outs that look alike come from different tables or passages of the source.

`[K+].[OH-]` [KOH, potassium hydroxide]: the “deposited collagen (amount, appearance)” value in data set [1] (2 weeks) was “meager compared to that of the control group”. Also, in data set [1] (setting [3]), the “width of the scar vs control group (histological observation)” value was “thinner than that of the control group”. For the same compound, in data set [1] (8 weeks), the “collagen fibers (density, structure) vs normal dermis” value (from here on “collagen fibers … vs normal dermis”) is listed as “not different from that of the normal dermis nearby”. Also, the pH value in data set [2] (0.05 mEq) is 8.56; in data set [2] (0.1 mEq) it was 9.40; in data set [2] (0.5 mEq), 9.74; in data set [2] (1.0 mEq) it was 10.51.
For `[Na+].[OH-]` [NaOH, sodium hydroxide], the “deposited collagen (amount, appearance)” value in data set [1] (2 weeks) is on record as “meager compared to that of the control group”. Moreover, the “width of the scar vs control group (histological observation)” value in data set [1] (setting [3]) is on record as “thinner than that of the control group”. The “collagen fibers … vs normal dermis” value in data set [1] (8 weeks) is listed as “not different from that of the normal dermis nearby”. Moreover, the pH value in data set [2] (0.05 mEq) is given as 8.55; in data set [2] (0.1 mEq) it was 9.38; in data set [2] (0.5 mEq), 9.87; in data set [2] (1.0 mEq) it was 10.50.
`O=C([O-])O.[Na+]` [sodium bicarbonate]: the “degree of deposition of inflammatory cells vs control group” value in data set [1] (setting [3]) is “not much difference”. The “width of the scar vs control group (histological observation)” value in data set [1] (setting [3]) was “thinner than that of the control group”. The scar appearance entry in data set [1] (8 weeks, hematoxylin-eosin dyeing, ×40) is “thin and unnoticeable scar”. The fibroblast cells result in data set [1] (8 weeks, hematoxylin-eosin dyeing, ×400) is “Not many of the fibroblast cells were found”. Moreover, the pH value in data set [2] (0.05 mEq) came out at 8.83; in data set [2] (0.1 mEq), 9.22; in data set [2] (0.5 mEq), 9.82; in data set [2] (1.0 mEq), 10.36.
As for TGF-β, the “collagen fibers … vs normal dermis” value with TGF-β is on record as “clearly showed the scar”.
